Assay [1] addresses T1, KRAS G12D (Homo sapiens, UniProt P01116, G12D).
T1 construct: aa1-188 KRAS WT, HRAS WT, NRAS WT, or KRAS containing the G12D
In words: HTRF nucleotide exchange assay, KRAS G12D. It counts as biochemical. The note with it: class symbols; for IC50: HTRF nucleotide exchange assay (NEA). Background: In TR-FRET formats the signal depends on donor and acceptor labels being close together.

The target of assay [2] is T2, KRAS WT (Homo sapiens, UniProt P01116).
T2 construct: aa1-188 KRAS WT
Briefly: HTRF nucleotide exchange assay, KRAS WT. It counts as biochemical. The conditions noted are these: class symbols; for IC50: HTRF nucleotide exchange assay (NEA).

By IC50 is commonly meant the concentration that inhibits the measured activity by half. The low end stands for inhibition by little substance, the high end for a need for much substance.

A value given as a limit tells only on which side of the number the result lay.

Turning to `CCc1c(F)ccc2cc(O)cc(-c3c(F)c4nc(OCC5(C)C[C@@H](O)CN5C)nc(N5CCOCC(C)(O)C5)c4c4cn(C)nc34)c12` (mixture of isomers) [Example 153, 4-[4-(8-ethyl-7-fluoro-3-hydroxy-1-naphthyl)-5-fluoro-2-methyl-7-[[rac-(4R)-4-hydroxy-1,2-dimethyl-pyrrolidin-2-yl]methoxy]pyrazolo[4,3-f]quinazolin-9-yl]-6-methyl-1,4-oxazepan-6-ol], the half-inhibitory concentration (IC50) in assay [1] and in assay [2] was not above 10 nM throughout.
In the case of `CCc1c(F)ccc2cc(O)cc(-c3cc4nc(OC[C@@]56CCCN5C[C@H](F)C6)nc(N5CCC(C)(O)C5)c4c4cn(C)nc34)c12` (stereo partly drawn) [Example 116, 1-[4-(8-ethyl-7-fluoro-3-hydroxy-1-naphthyl)-2-methyl-7-[[(2R,8S)-2-fluoro-1,2,3,5,6,7-hexahydropyrrolizin-8-yl]methoxy]pyrazolo[4,3-f]quinazolin-9-yl]-3-methyl-pyrrolidin-3-ol], the IC50 in assay [1] and in assay [2] was 10 to 100 nM in each case.
`CCc1c(F)ccc2cc(O)cc(-c3cc4nc(OC[C@@]56CCCN5C[C@H](F)C6)nc(N5CC(C(C)(C)O)C5)c4c4cn(C)nc34)c12` [Example 128, 5-ethyl-6-fluoro-4-[9-[3-(1-hydroxy-1-methyl-ethyl)azetidin-1-yl]-2-methyl-7-[[(2R,8S)-2-fluoro-1,2,3,5,6,7-hexahydropyrrolizin-8-yl]methoxy]pyrazolo[4,3-f]quinazolin-4-yl]naphthalen-2-ol] returned a 50% inhibitory concentration (IC50) in assay [1] of 100 to 10000 nM. For the same compound, the “KRAS^WT NEA” value in assay [2] was “D (<49% inhibition at 10 μM)”.
On to `CCNC(=O)c1cc2n(n1)CCCN(c1nc(OC[C@@]34CCCN3C[C@H](F)C4)nc3c(C)c(-c4cc(O)cc5ccc(F)c(CC)c45)c4nn(C)cc4c13)C2` [Example 181, N-ethyl-5-[4-(8-ethyl-7-fluoro-3-hydroxy-1-naphthyl)-7-[[(2R,8S)-2-fluoro-1,2,3,5,6,7-hexahydropyrrolizin-8-yl]methoxy]-2,5-dimethyl-pyrazolo[4,3-f]quinazolin-9-yl]-4,6,7,8-tetrahydropyrazolo[1,5-a][1,4]diazepine-2-carboxamide], for which the IC50 in assay [1] and in assay [2] was not above 10 nM throughout.
As to `CCc1c(F)ccc2cc(O)cc(-c3c(F)c4nc(OC[C@@]56CCCN5C[C@H](F)C6)nc(N5CCC(O)CC5)c4c4cn(C)nc34)c12` [Example 177, 1-[4-(8-ethyl-7-fluoro-3-hydroxy-1-naphthyl)-5-fluoro-2-methyl-7-[[(2R,8S)-2-fluoro-1,2,3,5,6,7-hexahydropyrrolizin-8-yl]methoxy]pyrazolo[4,3-f]quinazolin-9-yl]piperidin-4-ol], the IC50 in assay [1] and in assay [2] was not above 10 nM in each case.
As for `CCc1c(F)ccc2cc(O)cc(-c3c(F)c4nc(OCC5(C#N)CCOC5)nc(N5CCOCC(C)(O)C5)c4c4cn(C)nc34)c12` (centres unmarked) [Example 164, 3-[[4-(8-ethyl-7-fluoro-3-hydroxy-1-naphthyl)-5-fluoro-9-(6-hydroxy-6-methyl-1,4-oxazepan-4-yl)-2-methyl-pyrazolo[4,3-f]quinazolin-7-yl]oxymethyl]tetrahydrofuran-3-carbonitrile], the figures for the IC50 in assay [1] and in assay [2] were not above 10 nM and 10 to 100 nM, respectively.
On the same counts, the results for `CCc1c(F)ccc2cc(O)cc(-c3c(C)c4nc(OC[C@@]56CCCN5C[C@H](F)C6)nc(N5CCCn6nc(C(=O)N7CCOCC7)cc6C5)c4c4cn(C)nc34)c12` [Example 209, [5-[4-(8-ethyl-7-fluoro-3-hydroxy-1-naphthyl)-7-[[(2R,8S)-2-fluoro-1,2,3,5,6,7-hexahydropyrrolizin-8-yl]methoxy]-2,5-dimethyl-pyrazolo[4,3-f]quinazolin-9-yl]-4,6,7,8-tetrahydropyrazolo[1,5-a][1,4]diazepin-2-yl]-morpholino-methanone] are not above 10 nM and not above 10 nM.
Turning to `CCc1c(F)ccc2cc(O)cc(-c3c(F)c4nc(OCC56COC(COC)(C5)C6)nc(N5CCCn6nc(C(=O)N(C)C)cc6C5)c4c4cn(C)nc34)c12` [Example 208, 5-[4-(8-ethyl-7-fluoro-3-hydroxy-1-naphthyl)-5-fluoro-7-[[1-(methoxymethyl)-2-oxabicyclo[2.1.1]hexan-4-yl]methoxy]-2-methyl-pyrazolo[4,3-f]quinazolin-9-yl]-N,N-dimethyl-4,6,7,8-tetrahydropyrazolo[1,5-a][1,4]diazepine-2-carboxamide], the IC50 in assay [1] was not above 10 nM; in assay [2], 10 to 100 nM.
Take `CCNC(=O)c1cc2n(n1)CCCN(c1nc(OC[C@@]34CCCN3C[C@H](F)C4)nc3c(F)c(-c4cc(O)cc5ccc(F)c(CC)c45)c4nn(C)cc4c13)C2` [Example 196, N-ethyl-5-[4-(8-ethyl-7-fluoro-3-hydroxy-1-naphthyl)-5-fluoro-7-[[(2R,8S)-2-fluoro-1,2,3,5,6,7-hexahydropyrrolizin-8-yl]methoxy]-2-methyl-pyrazolo[4,3-f]quinazolin-9-yl]-4,6,7,8-tetrahydropyrazolo[1,5-a][1,4]diazepine-2-carboxamide]: the IC50 in assay [1] and in assay [2] was not above 10 nM each time.
On to `CCc1c(F)ccc2cc(O)cc(-c3cc4nc(OC[C@@H]5C[C@H](C)CN5)nc(N5CCCn6nc(C(=O)N(C)C)cc6C5)c4c4cn(C)nc34)c12` [Example 49, 5-[4-(8-ethyl-7-fluoro-3-hydroxy-1-naphthyl)-2-methyl-7-[[(2S,4S)-4-methylpyrrolidin-2-yl]methoxy]pyrazolo[4,3-f]quinazolin-9-yl]-N,N-dimethyl-4,6,7,8-tetrahydropyrazolo[1,5-a][1,4]diazepine-2-carboxamide], for which the “KRAS^G12D NEA” value in assay [1] is given as “D (<49% inhibition at 10 μM)”. The IC50 in assay [2] lay within 100 to 10000 nM.
With `CCc1c(F)ccc2cc(O)cc(-c3c(F)c4nc(OCC5(CN(C)C)CC5)nc(N5CCOCC(C)(O)C5)c4c4cn(C)nc34)c12` (centres unmarked) [Example 157, 4-[7-[[1-[(dimethylamino)methyl]cyclopropyl]methoxy]-4-(8-ethyl-7-fluoro-3-hydroxy-1-naphthyl)-5-fluoro-2-methyl-pyrazolo[4,3-f]quinazolin-9-yl]-6-methyl-1,4-oxazepan-6-ol], the IC50 in assay [1] and in assay [2] was not above 10 nM in each case.
Regarding `CCc1c(F)ccc2cc(O)cc(-c3cc4nc(OC[C@@]56CCCN5C[C@H](F)C6)nc(N5CCC(C)(OC)CC5)c4c4cn(C)nc34)c12` [Example 119, 5-ethyl-6-fluoro-4-[9-(4-methoxy-4-methyl-1-piperidyl)-2-methyl-7-[[(2R,8S)-2-fluoro-1,2,3,5,6,7-hexahydropyrrolizin-8-yl]methoxy]pyrazolo[4,3-f]quinazolin-4-yl]naphthalen-2-ol], the IC50 in assay [1] and in assay [2] was 100 to 10000 nM throughout.
Take `CCc1c(F)ccc2cc(O)cc(-c3cc4nc(OC[C@@]56CCCN5C[C@H](F)C6)nc(N5CCCC(C)(O)CC5)c4c4cn(C)nc34)c12` (stereo partly drawn) [Example 29, 1-[4-(8-ethyl-7-fluoro-3-hydroxy-1-naphthyl)-7-[[(2R,8S)-2-fluoro-1,2,3,5,6,7-hexahydropyrrolizin-8-yl]methoxy]-2-methyl-pyrazolo[4,3-f]quinazolin-9-yl]-4-methyl-azepan-4-ol]: the “KRAS^G12D NEA” value in assay [1] is recorded as “D (<49% inhibition at 10 μM)”. This compound also came in with an IC50 in assay [2] of 100 to 10000 nM.
Turning to `CCc1c(F)ccc2cc(O)cc(-c3c(F)c4nc(OCC5(C)CC(OC)CN5)nc(N5CCOCC(C)(O)C5)c4c4cn(C)nc34)c12` (centres unmarked) [Example 151, 4-[4-(8-ethyl-7-fluoro-3-hydroxy-1-naphthyl)-5-fluoro-7-[(4-methoxy-2-methyl-pyrrolidin-2-yl)methoxy]-2-methyl-pyrazolo[4,3-f]quinazolin-9-yl]-6-methyl-1,4-oxazepan-6-ol], the IC50 in assay [1] and in assay [2] was not above 10 nM in each case.
As for `Cc1cc2[nH]ncc2c(-c2cc3nc(OC[C@@]45CCCN4C[C@H](F)C5)nc(N4CCCn5nc(C(=O)N(C)C)cc5C4)c3c3cn(C)nc23)c1C(F)(F)F` [Example 84, 5-[7-[[(2R,8S)-2-fluoro-1,2,3,5,6,7-hexahydropyrrolizin-8-yl]methoxy]-2-methyl-4-[6-methyl-5-(trifluoromethyl)-1H-indazol-4-yl]pyrazolo[4,3-f]quinazolin-9-yl]-N,N-dimethyl-4,6,7,8-tetrahydropyrazolo[1,5-a][1,4]diazepine-2-carboxamide], the IC50 was not above 10 nM in assay [1] and 10 to 100 nM in assay [2].
In the case of `CCc1c(F)ccc2cc(O)cc(-c3c(C)c4nc(OC[C@]5(C)CCCN5C)nc(N5CCC[C@@](C)(O)C5)c4c4cn(C)nc34)c12` [Example 234], the IC50 is not above 10 nM in assay [1] and 10 to 100 nM in assay [2].
For the compound `CCc1c(F)ccc2cc(O)cc(-c3cc4nc(OC[C@@]56CCCN5C[C@H](F)C6)nc(N5CCOCC(O)C5)c4c4cn(C)nc34)c12` (stereo partly drawn) [Example 120, 4-[4-(8-ethyl-7-fluoro-3-hydroxy-1-naphthyl)-2-methyl-7-[[(2R,8S)-2-fluoro-1,2,3,5,6,7-hexahydropyrrolizin-8-yl]methoxy]pyrazolo[4,3-f]quinazolin-9-yl]-1,4-oxazepan-6-ol], the IC50 in assay [1] and in assay [2] was not above 10 nM in each case.
With `CN(C)C(=O)c1cc2n(n1)CCCN(c1nc(OC[C@@]34CCCN3C[C@H](F)C4)nc3cc(-c4cc(O)c(F)c5ccccc45)c4nn(C)cc4c13)C2` [Example 61, 5-[4-(4-fluoro-3-hydroxy-1-naphthyl)-2-methyl-7-[[(2R,8S)-2-fluoro-1,2,3,5,6,7-hexahydropyrrolizin-8-yl]methoxy]pyrazolo[4,3-f]quinazolin-9-yl]-N,N-dimethyl-4,6,7,8-tetrahydropyrazolo[1,5-a][1,4]diazepine-2-carboxamide], the results for the IC50 in assay [1] and in assay [2] were 10 to 100 nM and 100 to 10000 nM, respectively.
Consider `CCc1c(F)ccc2cc(O)cc(-c3cc4nc(OCC5(CN6CCOCC6)CC5)nc(N5CCCn6nc(C(=O)N(C)C)cc6C5)c4c4cn(C)nc34)c12` [Example 69, 5-[4-(8-ethyl-7-fluoro-3-hydroxy-1-naphthyl)-2-methyl-7-[[1-(morpholinomethyl)cyclopropyl]methoxy]pyrazolo[4,3-f]quinazolin-9-yl]-N,N-dimethyl-4,6,7,8-tetrahydropyrazolo[1,5-a][1,4]diazepine-2-carboxamide], for which the IC50 in assay [1] was not above 10 nM; in assay [2] it was 10 to 100 nM.

The values are drawn from US20260347364A1, “PYRAZOLO[4,3-F]QUINAZOLINE DERIVATIVES AS MODULATORS OF G12D MUTANT KRAS USEFUL FOR THE TREATMENT OF CANCER” (JAZZ PHARMACEUTICALS IRELAND LTD., priority 2023, published 2026).
